These results are taken from ChEMBL document CHEMBL1201862, “PubChem BioAssay data set” (2004).

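Method: 48-hour compound exposure of cells in 96-well plates, five concentrations, linear interpolation of endpoints. Here, GI50 denotes the concentration required for 50% inhibition of growth.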 The source made the active and inactive calls. No stated cut-off is given here; in the data, active = GI50 up to about 1.1 µM and inactive = higher.

Among the test systems are COLO 205; DU-145; HCC 2998; HL-60; HOP-92; IGROV-1; MCF7; MDA-MB-435; NCI-H522; NCI/ADR-RES; OVCAR-4; RXF 393; SK-MEL-2; SK-OV-3; TK-10; UACC-257; UO-31; HOP-62; K562; RPMI-8226.
Common to all, as to experiment: NCI-60 cell line screen, 48 h

`Cc1nc(C(N)=S)sc1C(/C=C/c1ccc(Cl)c(Cl)c1)=N/NC(C)(C)C`: the GI50 with COLO 205 was > 100 µM (inactive); in the assay on DU-145, > 100 µM (inactive); in the assay on HCC 2998, > 100 µM (inactive); in the assay with HL-60 it was 61.8 µM (inactive); in the assay on HOP-92 it was > 100 µM (inactive); in the assay with IGROV-1 it was > 100 µM (inactive). For the same compound, the GI50 in the assay on MCF7 is > 100 µM (inactive); in the assay with MDA-MB-435, > 100 µM (inactive); in the assay with NCI-H522, 75.3 µM (inactive); in the assay with NCI/ADR-RES it was > 100 µM (inactive); with OVCAR-4 it was 88.5 µM (inactive); in the assay on RXF 393, > 100 µM (inactive). Besides, the GI50 in the assay on SK-MEL-2 is > 100 µM (inactive); in the assay with SK-OV-3 it was > 100 µM (inactive); with TK-10 it was > 100 µM (inactive); in the assay on UACC-257 it was > 100 µM (inactive); in the assay on UO-31 it was 33.2 µM (inactive).

For `CC1(C)Cc2c(cnn2-c2ccc(C(F)(F)F)cc2)-c2[nH]c(-c3ccc(O)cc3)nc21`, the GI50 was 13.7 µM (inactive) in the assay on COLO 205; 17.5 µM (inactive) in the assay on DU-145; 15.7 µM (inactive) with HCC 2998; 4.72 µM (inactive) in the assay on HL-60; 21.4 µM (inactive) in the assay with HOP-62; 17.9 µM (inactive) with HOP-92. Further, the GI50 with IGROV-1 was 19.4 µM (inactive); with K562 it was 5.15 µM (inactive); with MCF7 it was 14.2 µM (inactive); in the assay with MDA-MB-435 it was 17.2 µM (inactive); in the assay with NCI-H522 it was 8.99 µM (inactive); in the assay with NCI/ADR-RES it was 19.5 µM (inactive). The GI50 in the assay with OVCAR-4 is 12.2 µM (inactive); in the assay on RXF 393 it was 3.46 µM (inactive); in the assay with SK-OV-3, 21.4 µM (inactive); in the assay on TK-10 it was 16.5 µM (inactive); with UACC-257 it was 16.4 µM (inactive); in the assay with UO-31 it was 15.3 µM (inactive).

`[O-]c1c[n+](-c2ccccc2)no1`: the GI50 with COLO 205, with DU-145, with HCC 2998, in the assay with HL-60, in the assay on HOP-62 and in the assay on HOP-92 was > 100 µM (inactive) throughout. In addition, the GI50 in the assay on IGROV-1, in the assay with K562, in the assay on MCF7, in the assay with MDA-MB-435, in the assay with NCI/ADR-RES and in the assay with OVCAR-4 was > 100 µM (inactive) each time. For the same compound, the GI50 in the assay on RPMI-8226, in the assay with RXF 393, in the assay on SK-MEL-2, in the assay on SK-OV-3, in the assay on TK-10 and in the assay with UACC-257 was > 100 µM (inactive) in each case. In the assay on UO-31, the GI50 was > 100 µM (inactive).

Take `COC(=O)/C=C/N1CC1`: the GI50 with COLO 205 was 2.19 µM (inactive); in the assay on DU-145, > 10 µM (inactive); in the assay on HCC 2998 it was 3.62 µM (inactive); with HL-60, 8.63 µM (inactive); with HOP-62 it was > 10 µM (inactive); with IGROV-1, 1.45 µM (inactive). Moreover, the GI50 was > 10 µM (inactive) in the assay on K562; > 10 µM (inactive) in the assay with MCF7; > 10 µM (inactive) with MDA-MB-435; > 10 µM (inactive) in the assay on NCI-H522; > 10 µM (inactive) in the assay with NCI/ADR-RES; 4.82 µM (inactive) in the assay with OVCAR-4. Further, the GI50 in the assay with RPMI-8226 is > 10 µM (inactive); with SK-MEL-2 it was > 10 µM (inactive); with SK-OV-3 it was > 10 µM (inactive); in the assay with TK-10 it was 4.09 µM (inactive); in the assay on UACC-257 it was > 10 µM (inactive).

For the compound `O=[N+]([O-])/C(C(Cl)=C(Cl)Cl)=C(\N1CCOCC1)n1nnc2ccccc21`, the GI50 is 18.8 µM (inactive) with COLO 205; 18.1 µM (inactive) with DU-145; 18.8 µM (inactive) with HOP-62; 18.3 µM (inactive) in the assay on HOP-92; 19.7 µM (inactive) in the assay with MCF7; 17 µM (inactive) in the assay with MDA-MB-435. In addition, the GI50 is 16 µM (inactive) with NCI-H522; 25.9 µM (inactive) in the assay on NCI/ADR-RES; 27.2 µM (inactive) in the assay with OVCAR-4; 52.6 µM (inactive) with RPMI-8226; 22.2 µM (inactive) with SK-MEL-2; 27.2 µM (inactive) with SK-OV-3. In addition, the GI50 was 29.3 µM (inactive) with TK-10, 20.7 µM (inactive) with UACC-257 and 17.8 µM (inactive) in the assay on UO-31.

For `O=C1CC(Cl)c2c(Cl)sc(Cl)c21` (stereo not given), the GI50 was 2.02 µM (inactive) in the assay on COLO 205; 2.47 µM (inactive) in the assay on DU-145; 2.36 µM (inactive) with HCC 2998; 1.4 µM (inactive) with HL-60; 6 µM (inactive) in the assay with HOP-62; 1.74 µM (inactive) in the assay with HOP-92. In addition, the GI50 was 1.99 µM (inactive) in the assay with IGROV-1; 2.85 µM (inactive) in the assay on K562; 0.794 µM (active) in the assay on MCF7; 2.36 µM (inactive) with MDA-MB-435; 1.21 µM (inactive) in the assay with NCI-H522; 3.35 µM (inactive) in the assay with NCI/ADR-RES. Moreover, the GI50 was 4.57 µM (inactive) in the assay with OVCAR-4; 0.155 µM (active) in the assay on RPMI-8226; 18.6 µM (inactive) in the assay with SK-OV-3; 2.36 µM (inactive) in the assay on TK-10; 2.96 µM (inactive) in the assay on UACC-257; 1.99 µM (inactive) with UO-31.

Turning to `Oc1c(Cl)c(Cl)c(O)c(CCNc2nccs2)c1Cl`, the GI50 is 11.3 µM (inactive) in the assay with COLO 205; 3.67 µM (inactive) in the assay with DU-145; 16.1 µM (inactive) in the assay with HCC 2998; 6.84 µM (inactive) in the assay with HL-60; 19.1 µM (inactive) with HOP-62; 32.4 µM (inactive) in the assay with HOP-92. Moreover, the GI50 in the assay on IGROV-1 was 3.27 µM (inactive); in the assay with K562 it was 4.58 µM (inactive); with MCF7, 2.41 µM (inactive); with MDA-MB-435 it was 16.1 µM (inactive); in the assay on NCI-H522, 2.02 µM (inactive); with NCI/ADR-RES, 19.6 µM (inactive). In addition, the GI50 in the assay with OVCAR-4 was 38.1 µM (inactive); in the assay on RXF 393, 7.23 µM (inactive); with SK-MEL-2, 22.3 µM (inactive); with SK-OV-3 it was 16.3 µM (inactive); in the assay on TK-10, 11.7 µM (inactive); in the assay with UACC-257, 20 µM (inactive). Also, the GI50 with UO-31 is 16.4 µM (inactive).

Consider `C=C(C)/C=C/C(O)[C@](C)(O)[C@H]1[C@H](O)C[C@@]2(C)[C@@H]3CCc4c(cc(OC5OC(CO)C(O)C(O)C5O)c(O)c4C)C3(C)C(=O)C[C@]12C` (stereo not given in full), for which the GI50 in the assay on COLO 205, in the assay on DU-145, in the assay on HCC 2998, with HOP-62, with HOP-92 and in the assay with IGROV-1 was > 100 µM (inactive) each time. Also, the GI50 with K562, in the assay on MCF7, in the assay on MDA-MB-435, in the assay with NCI-H522, in the assay on NCI/ADR-RES and in the assay on OVCAR-4 was > 100 µM (inactive) in each case. Also, the GI50 in the assay with RXF 393, in the assay with SK-MEL-2, in the assay with SK-OV-3, in the assay on TK-10, in the assay on UACC-257 and with UO-31 was > 100 µM (inactive) each time.

For the compound `O=C(O)CSC(CC(=O)c1ccc(Cl)cc1)c1ccc(Cl)cc1` (stereo not given), the GI50 is 49.8 µM (inactive) in the assay with COLO 205; 34.8 µM (inactive) with DU-145; 2.37 µM (inactive) with HL-60; 32.9 µM (inactive) in the assay on HOP-62; 25.8 µM (inactive) in the assay on HOP-92; 19.7 µM (inactive) in the assay on IGROV-1. For the same compound, the GI50 in the assay with K562 was 32.1 µM (inactive); in the assay on MCF7 it was 22.2 µM (inactive); in the assay on MDA-MB-435, 22.1 µM (inactive); in the assay on NCI-H522, 14.7 µM (inactive); in the assay on NCI/ADR-RES, 38.7 µM (inactive); in the assay with OVCAR-4, 27.4 µM (inactive). The GI50 is 6.95 µM (inactive) in the assay on RPMI-8226; 50.8 µM (inactive) in the assay with SK-MEL-2; 36.5 µM (inactive) in the assay on SK-OV-3; 21.4 µM (inactive) in the assay with TK-10; 21.2 µM (inactive) with UACC-257; 34.6 µM (inactive) with UO-31.

With `O=C(O)C1C2C=CC(O2)C1C(=O)Nc1ccccc1` (stereo not given), the GI50 with COLO 205, in the assay with DU-145, in the assay on HOP-62, with IGROV-1, in the assay on K562 and with MCF7 was > 100 µM (inactive) throughout. For the same compound, the GI50 in the assay on MDA-MB-435, with NCI-H522, with NCI/ADR-RES, in the assay on OVCAR-4, in the assay on RPMI-8226 and in the assay on RXF 393 was > 100 µM (inactive) each time. For the same compound, the GI50 in the assay on SK-MEL-2, in the assay on SK-OV-3, in the assay on TK-10, in the assay with UACC-257 and in the assay on UO-31 was > 100 µM (inactive) throughout.

For the compound `CNC(=O)CNC(=O)CCC(=O)OC`, the GI50 in the assay with COLO 205, with DU-145, with HOP-62, with K562, in the assay on MCF7 and in the assay with MDA-MB-435 was > 100 µM (inactive) in each case. Also, the GI50 is 66.2 µM (inactive) in the assay on NCI-H522; > 100 µM (inactive) in the assay with NCI/ADR-RES; > 100 µM (inactive) in the assay on OVCAR-4; > 100 µM (inactive) in the assay on RXF 393; > 100 µM (inactive) with SK-MEL-2; > 100 µM (inactive) in the assay with SK-OV-3. In addition, the GI50 in the assay on TK-10 and in the assay on UO-31 was > 100 µM (inactive) in each case.
